Results as given in ChEMBL document CHEMBL5665443, “Enzyme Inhibitor Single Concentration assay results for EUbOPEN Chemogenomics Library” (2024).
“And” between values parts separate entries of the source, which are not always exact repeats. Equal values may be shown once.

Key:
Settings in all cases: Compound Concentration 10.0 uM, Hit No
[1] = biological target: T1, Endonuclease 8-like 2 (Homo sapiens) (UniProt Q969S2);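 also: fluorescence at 594 nm reports NEIL2 cutting and release of a quenched double-stranded DNA oligo substrate, reduced signal read as inhibition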
T1 sequence (whole entry): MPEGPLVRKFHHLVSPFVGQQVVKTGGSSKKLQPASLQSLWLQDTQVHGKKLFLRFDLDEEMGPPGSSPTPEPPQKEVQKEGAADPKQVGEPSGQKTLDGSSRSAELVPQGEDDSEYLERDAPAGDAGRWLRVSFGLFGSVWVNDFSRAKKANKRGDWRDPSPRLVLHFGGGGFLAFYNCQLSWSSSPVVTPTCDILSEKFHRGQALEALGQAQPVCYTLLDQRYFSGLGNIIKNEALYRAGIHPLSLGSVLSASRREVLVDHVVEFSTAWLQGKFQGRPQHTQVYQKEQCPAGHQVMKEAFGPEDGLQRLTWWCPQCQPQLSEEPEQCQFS
Description: Inhibition of NEIL2 by quantifying inhibition of NEIL2-mediated cleavage and dissociation of quenched duplex DNA oligonucleotides, measured as fluorescence at 594 nm.

[2] = biological target: Uracil-DNA glycosylase (Homo sapiens) (UniProt P13051);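 also: UNG excision on a quenched double-stranded DNA oligo probe, with APE1 added for strand incision and turnover, read as fluorescence at 594 nm as strands separate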
Sequence of Uracil-DNA glycosylase (Homo sapiens) (P13051 whole entry): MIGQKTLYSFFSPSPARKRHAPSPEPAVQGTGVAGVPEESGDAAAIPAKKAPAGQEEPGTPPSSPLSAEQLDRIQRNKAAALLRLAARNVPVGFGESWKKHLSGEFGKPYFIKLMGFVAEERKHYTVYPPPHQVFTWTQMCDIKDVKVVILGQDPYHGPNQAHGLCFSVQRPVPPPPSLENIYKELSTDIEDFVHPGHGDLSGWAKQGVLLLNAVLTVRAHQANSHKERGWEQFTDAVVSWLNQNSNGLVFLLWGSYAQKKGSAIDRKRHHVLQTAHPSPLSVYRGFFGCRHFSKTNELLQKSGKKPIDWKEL
Description: Inhibition of UNG by quantifying inhibition of UNG-mediated cleavage and dissociation of quenched duplex DNA oligonucleotides, measured as fluorescence at 594 nm. To generate a functional strand incision and increase turn-over this assay is coupled to APE1.

[3] = biological target: G/T mismatch-specific thymine DNA glycosylase (Homo sapiens) (UniProt Q13569);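 also: human TDG cleavage of quenched duplex DNA oligonucleotides coupled to APE1, strand release read as fluorescence at 594 nm, inhibition of TDG activity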
Sequence of G/T mismatch-specific thymine DNA glycosylase (Homo sapiens) (Q13569 whole entry): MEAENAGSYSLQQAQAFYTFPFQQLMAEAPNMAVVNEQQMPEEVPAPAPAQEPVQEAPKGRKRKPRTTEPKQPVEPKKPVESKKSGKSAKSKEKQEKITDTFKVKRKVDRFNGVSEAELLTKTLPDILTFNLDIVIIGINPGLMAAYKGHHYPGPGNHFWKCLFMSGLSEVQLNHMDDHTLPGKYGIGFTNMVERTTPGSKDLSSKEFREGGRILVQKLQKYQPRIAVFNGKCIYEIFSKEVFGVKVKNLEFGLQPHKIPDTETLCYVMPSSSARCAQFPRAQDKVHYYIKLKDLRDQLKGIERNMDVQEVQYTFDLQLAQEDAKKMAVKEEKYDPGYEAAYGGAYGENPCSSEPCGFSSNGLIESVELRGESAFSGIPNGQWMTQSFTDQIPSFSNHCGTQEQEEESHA
Description: Inhibition of TDG by quantifying inhibition of TDG-mediated cleavage and dissociation of quenched duplex DNA oligonucleotides, measured as fluorescence at 594 nm. To generate a functional strand incision and increase turn-over this assay is coupled to APE1.

[4] = biological target: Endonuclease 8-like 1 (Homo sapiens) (UniProt Q96FI4);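 also: fluorescence at 594 nm from quenched duplex DNA oligonucleotides released by NEIL1 cleavage and strand separation, reported as reduction of this enzyme activity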
Sequence of Endonuclease 8-like 1 (Homo sapiens) (Q96FI4 whole entry): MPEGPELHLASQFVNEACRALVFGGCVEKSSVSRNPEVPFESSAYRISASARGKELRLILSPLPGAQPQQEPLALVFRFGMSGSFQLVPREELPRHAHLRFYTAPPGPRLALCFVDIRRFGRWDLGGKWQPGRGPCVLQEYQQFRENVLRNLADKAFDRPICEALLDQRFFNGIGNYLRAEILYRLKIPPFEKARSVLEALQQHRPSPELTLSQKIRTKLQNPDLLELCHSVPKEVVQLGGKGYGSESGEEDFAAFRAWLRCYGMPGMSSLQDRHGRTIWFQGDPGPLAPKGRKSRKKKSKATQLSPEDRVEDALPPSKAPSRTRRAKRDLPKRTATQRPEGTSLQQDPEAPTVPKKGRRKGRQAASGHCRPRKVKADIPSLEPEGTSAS
Description: Inhibition of NEIL1 by quantifying inhibition of NEIL1-mediated cleavage and dissociation of quenched duplex DNA oligonucleotides, measured as fluorescence at 594 nm.

[5] = biological target: N-glycosylase/DNA lyase (Homo sapiens) (UniProt O15527);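 also: OGG1 cleavage of a quenched duplex DNA oligonucleotide, coupled to APE1 for strand incision, read as fluorescence at 594 nm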
Sequence of N-glycosylase/DNA lyase (Homo sapiens) (O15527 whole entry): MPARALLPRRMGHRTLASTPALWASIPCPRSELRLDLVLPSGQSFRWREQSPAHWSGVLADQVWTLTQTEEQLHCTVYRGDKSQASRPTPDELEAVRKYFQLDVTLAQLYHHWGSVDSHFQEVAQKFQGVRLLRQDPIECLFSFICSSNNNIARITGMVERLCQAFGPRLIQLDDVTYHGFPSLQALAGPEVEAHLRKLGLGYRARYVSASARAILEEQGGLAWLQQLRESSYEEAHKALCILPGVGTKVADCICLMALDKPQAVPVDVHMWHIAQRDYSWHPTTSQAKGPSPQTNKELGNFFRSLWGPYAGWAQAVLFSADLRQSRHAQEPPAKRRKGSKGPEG
Description: Inhibition of OGG1 by quantifying inhibition of OGG1-mediated cleavage and dissociation of quenched duplex DNA oligonucleotides, measured as fluorescence at 594 nm. To generate a functional strand incision and increase turn-over this assay is coupled to APE1.

[6] = biological target: DNA-3-methyladenine glycosylase (Homo sapiens) (UniProt P29372);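 also: enzyme assay where MPG cuts a quenched duplex DNA oligonucleotide probe, paired with APE1 for strand incision and turnover, read as fluorescence at 594 nm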
Sequence of DNA-3-methyladenine glycosylase (Homo sapiens) (P29372 whole entry): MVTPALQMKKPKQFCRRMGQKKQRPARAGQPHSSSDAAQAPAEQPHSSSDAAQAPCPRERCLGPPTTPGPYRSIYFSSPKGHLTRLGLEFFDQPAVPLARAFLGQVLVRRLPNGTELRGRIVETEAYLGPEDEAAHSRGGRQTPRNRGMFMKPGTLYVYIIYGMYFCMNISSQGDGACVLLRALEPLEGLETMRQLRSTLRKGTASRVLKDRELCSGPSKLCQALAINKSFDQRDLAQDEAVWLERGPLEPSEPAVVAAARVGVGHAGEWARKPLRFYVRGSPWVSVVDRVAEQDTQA
Description: Inhibition of MPG by quantifying inhibition of MPG-mediated cleavage and dissociation of quenched duplex DNA oligonucleotides, measured as fluorescence at 594 nm. To generate a functional strand incision and increase turn-over this assay is coupled to APE1.

[7] = biological target: T2, Adenine DNA glycosylase (Homo sapiens) (UniProt Q9UIF7);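 also: human MUTYH activity read as 594 nm fluorescence from cleavage and release of a quenched DNA duplex, coupled with APE1 for strand incision, lower signal meaning inhibition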
T2 sequence (whole entry): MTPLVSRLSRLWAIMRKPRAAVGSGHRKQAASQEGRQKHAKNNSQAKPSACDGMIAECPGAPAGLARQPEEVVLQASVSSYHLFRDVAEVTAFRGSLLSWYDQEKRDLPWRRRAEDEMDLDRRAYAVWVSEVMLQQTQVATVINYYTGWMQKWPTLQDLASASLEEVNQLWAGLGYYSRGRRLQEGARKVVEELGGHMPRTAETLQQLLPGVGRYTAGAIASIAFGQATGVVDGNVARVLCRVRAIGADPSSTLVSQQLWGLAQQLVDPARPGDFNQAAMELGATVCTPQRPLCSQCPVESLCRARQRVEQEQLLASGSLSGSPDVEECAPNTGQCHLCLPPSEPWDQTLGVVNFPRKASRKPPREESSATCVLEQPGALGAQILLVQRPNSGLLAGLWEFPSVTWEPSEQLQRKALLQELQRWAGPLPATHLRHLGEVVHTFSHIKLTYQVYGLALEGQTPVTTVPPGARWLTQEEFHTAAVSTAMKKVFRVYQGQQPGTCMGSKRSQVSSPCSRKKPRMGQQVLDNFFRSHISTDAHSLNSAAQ
Description: Inhibition of MUTYH by quantifying inhibition of MUTYH-mediated cleavage and dissociation of quenched duplex DNA oligonucleotides, measured as fluorescence at 594 nm. To generate a functional strand incision and increase turn-over this assay is coupled to APE1.

[8] = biological target: T3, Single-strand selective monofunctional uracil DNA glycosylase (Homo sapiens) (UniProt Q53HV7);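 also: enzymatic SMUG1 assay coupled with APE1, reading fluorescence at 594 nm released when a quenched double-stranded DNA oligonucleotide substrate is cleaved and separated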
T3 sequence (whole entry): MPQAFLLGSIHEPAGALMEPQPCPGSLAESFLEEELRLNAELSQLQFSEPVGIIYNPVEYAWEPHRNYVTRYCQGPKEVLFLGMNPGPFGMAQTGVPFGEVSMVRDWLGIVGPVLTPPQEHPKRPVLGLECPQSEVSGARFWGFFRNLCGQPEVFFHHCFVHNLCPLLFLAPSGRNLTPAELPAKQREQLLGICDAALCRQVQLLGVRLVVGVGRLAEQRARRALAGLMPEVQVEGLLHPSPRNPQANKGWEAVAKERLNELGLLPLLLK
Description: Inhibition of SMUG1 by quantifying inhibition of SMUG1-mediated cleavage and dissociation of quenched duplex DNA oligonucleotides, measured as fluorescence at 594 nm. To generate a functional strand incision and increase turn-over this assay is coupled to APE1.

[9] = biological target: Methyl-CpG-binding domain protein 4 (Homo sapiens) (UniProt O95243);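 also: MBD4 activity read as fluorescence at 594 nm from cleavage and release of a quenched duplex DNA oligonucleotide, with APE1 coupled to incise the strand and raise turnover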
Sequence of Methyl-CpG-binding domain protein 4 (Homo sapiens) (O95243 whole entry, the tested form may be a part): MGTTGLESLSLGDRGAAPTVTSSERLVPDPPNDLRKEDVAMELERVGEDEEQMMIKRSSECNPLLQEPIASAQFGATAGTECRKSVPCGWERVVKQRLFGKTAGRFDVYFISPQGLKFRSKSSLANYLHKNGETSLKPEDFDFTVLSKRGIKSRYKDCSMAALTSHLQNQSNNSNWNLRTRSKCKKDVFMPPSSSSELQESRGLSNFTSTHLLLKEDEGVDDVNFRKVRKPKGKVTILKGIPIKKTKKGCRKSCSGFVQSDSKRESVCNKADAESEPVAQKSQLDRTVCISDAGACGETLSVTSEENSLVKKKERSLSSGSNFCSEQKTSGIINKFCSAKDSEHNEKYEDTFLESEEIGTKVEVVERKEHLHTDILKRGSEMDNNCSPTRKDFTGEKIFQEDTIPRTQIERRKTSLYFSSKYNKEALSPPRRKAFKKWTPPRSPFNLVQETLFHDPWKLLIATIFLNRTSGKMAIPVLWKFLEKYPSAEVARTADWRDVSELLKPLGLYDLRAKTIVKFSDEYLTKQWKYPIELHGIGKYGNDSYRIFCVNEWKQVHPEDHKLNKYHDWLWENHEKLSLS
Description: Inhibition of MBD4 by quantifying inhibition of MBD4-mediated cleavage and dissociation of quenched duplex DNA oligonucleotides, measured as fluorescence at 594 nm. To generate a functional strand incision and increase turn-over this assay is coupled to APE1.

[10] = biological target: T4, Endonuclease III-like protein 1 (Homo sapiens) (UniProt P78549);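 also: enzyme assay tracking NTHL1 cutting and release of a quenched double-stranded DNA oligo substrate, read as fluorescence at 594 nm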
T4 sequence (whole entry): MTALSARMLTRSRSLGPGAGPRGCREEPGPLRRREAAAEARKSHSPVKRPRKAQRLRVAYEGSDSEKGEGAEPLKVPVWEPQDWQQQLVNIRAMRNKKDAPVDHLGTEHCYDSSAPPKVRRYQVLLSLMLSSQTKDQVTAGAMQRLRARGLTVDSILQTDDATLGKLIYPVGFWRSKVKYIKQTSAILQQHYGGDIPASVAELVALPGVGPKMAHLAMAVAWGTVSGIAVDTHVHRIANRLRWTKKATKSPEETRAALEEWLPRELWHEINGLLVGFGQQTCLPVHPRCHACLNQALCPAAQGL
Description: Inhibition of NTHL1 by quantifying inhibition of NTHL1-mediated cleavage and dissociation of quenched duplex DNA oligonucleotides, measured as fluorescence at 594 nm.

Row | Compound | inhibition [1] | inhibition [2] | inhibition [3] [%] | inhibition [4] | inhibition [5] | inhibition [6] [%] | inhibition [7] | inhibition [8] | inhibition [9] [%] | inhibition [10] [%]
1 | O=c1ccn([C@@H]2O[C@H](COP(=O)(O)OP(=O)(O)O)[C@@H](O)[C@H]2O)c(=O)[nH]1 | 2.51% | -4.06% | 19.1 | -1.39% | -4.12% | -2.06 | 23.4% | – | – | –
2 | N[C@H](C(=O)O)c1ccc(C(=O)O)c(C(=O)O)c1 | 5.76% | – | 4.6 | -4.06% | -7.96% | -6.3 | 10.4% | -4.49% | – | –
3 | CN(C)C(=O)N[C@H]1CC[C@H](CCN2CCN(c3cccc(Cl)c3Cl)CC2)CC1 | 10.2% | -3.02% | 14.4 | -4.8% | 1.62% | -7.07 | – | 1.03% | -1.19 | 2.66
4 | COCCCN1CCC(NC(=O)c2cc(Cl)c(N)c3c2OCC3)CC1 | -0.983% | – | 2.17 | -6.73% | -3.13% | 8.09 | 17.3% | – | – | –
5 | Cc1cnc(CNCC2(F)CCN(C(=O)c3ccc(F)c(Cl)c3)CC2)nc1 | 7.5% | -8.07% | 6.93 | 2.32% | -1.55% | 6.04 | -3.43% | -8.17% | – | –
6 | CCCCN(CC)c1nc(C)nc2c1c(C)cn2-c1c(C)cc(C)cc1C | 9% | -4.91% | 13.7 | -1.24% | 2.6% | 6 | – | -0.0333% | -9.26 | 19.5
7 | Cc1cc(C(C)(C)C)c(O)c(C)c1CC1=NCCN1 | 19% | -7.32% | 10.8 | 8.25% | -1.82% | 3.54 | – | -3.38% | -7.05 | 1.92
8 | Nc1nc(NCCc2ccc(O)cc2)nc2nc(-c3ccco3)nn12 | 6% | – | -0.119 | -1.69% | -7.81% | -1.9 | 18.6% | -6.72% | – | –
9 | Cc1cccc(NC(=O)N[C@@H]2N=C(c3ccccc3)c3ccccc3N(C)C2=O)c1 | -1.73% | – | 12.3 | – | -6.8% | 17 | 10.5% | -5.61% | – | –
10 | c1ccc(NCc2ccc(CNc3ccccn3)cc2)nc1 | -4.48% | – | 13.4 | 3.5% | -3.65% | -3.14 | -5.87% | – | – | –
11 | CC(C)(C)NCC(O)COc1cccc2[nH]c(=O)[nH]c12 (stereo not drawn) | 10.5% | -8.82% | 5.99 | 3.06% | -2.11% | 4.34 | – | 12.3% | 12.3 | -6.87
12 | CC(C)NCC(O)COc1cccc2[nH]ccc12 (stereo not drawn) | 4.01% | -6.49% | 3.97 | 2.76% | -5.87% | 6.08 | -5.48% | – | – | –
13 | CCc1nc2c(C)cc(C)nc2[nH]1 | 6.75% | – | -2.03 | 2.46% | – | 5.35 | -7.66% | – | – | –
14 | Cc1onc(-c2ccccc2Cl)c1C(=O)N(C)c1ccc(Cl)cc1 | 7% | -8.91% | 12.4 | -2.13% | -3.42% | -3.37 | 15.8% | 3.65% | – | –
15 | Cn1c(=O)n(CCCO)c(=O)c2c1nc(Oc1cccc(OC(F)(F)F)c1)n2Cc1ccc(Cl)cc1 | -7.23% | -4.54% | 19.9 | -2.66% | -1.67% | 13.8 | – | 10.3% | 26.6 | 8.82
16 | Clc1ccc2nsnc2c1NC1=NCCN1 | 0.515% | -7.76% | 12 | -3.76% | -1.01% | 6.04 | -8.81% | 2.87% | – | –
17 | CN1C[C@@H](NS(=O)(=O)N(C)C)C[C@@H]2c3cccc4c3c(cn4C)C[C@H]21 | -0.605% | -6.05% | 7.57 | 13.1% | -5.21% | 11.2 | – | 2.87% | 12.1 | -8.51
18 | CCC(=N\O)/C(C)=C/c1ccc(F)cc1 | -6.1% and 1.43% | -0.0369% and -2.61% | – | 0.164% and -0.139% | 8.29% and 3.66% | 12.6 | -8.19% and -8.38% | 15.6% and 4.45% | – | –
19 | CCCn1c(=O)c2[nH]c(-c3ccc(OCC(=O)Nc4ccc(C#N)cc4)cc3)nc2n(CCC)c1=O | – | -6.42% | 1.64 | – | -7.63% | -6.3 | -3.95% | – | – | –
20 | CC(C)Cc1ccc([C@@H](C)C(=O)NS(C)(=O)=O)cc1 | -1.98% | -7.7% | 3.68 | 1.28% | -2.17% | -0.553 | 19% | 0.354% | – | –
21 | CN1CCN2c3ncccc3Cc3ccccc3C2C1 (stereo not drawn) | 10% | – | -8.16 | 3.95% | -6.38% | -7.53 | -2.92% | – | – | –
22 | CCOC(=O)C1=C[C@]2(CC)CCCN3CCc4c(n1c1ccccc41)[C@@H]32 | 6.02% | -5.08% | -4.28 | 2.53% | -8.62% | -4.56 | – | 1% | -4.24 | 18.7
23 | CC(C)(C)c1ccc(S(=O)(=O)Nc2ccc(Cl)cc2C(=O)c2cc[n+]([O-])cc2)cc1 | -0.483% | – | -0.448 | 3.35% | 1.79% | 1.3 | -4.97% | – | – | –
24 | OC(CN1CCC(Cc2ccc(F)cc2)CC1)c1ccc(Cl)cc1 (stereo not drawn) | -7.99% | -7.04% | -8.99 | 0.602% | -4.77% | 4.63 | – | -3.86% | -0.39 | 8.82
25 | Clc1cccc(Cl)c1NC1=NCCN1 | 1.76% | – | 0.825 | -1.69% | -5.49% | -5.72 | 14.7% | – | – | –
26 | Cc1nc(C(=O)N2CCC[C@H]2Cc2nnc(-c3ccccc3)o2)c(-c2ccccc2F)s1 | -1.23% | -9.58% | 15 | 2.46% | -0.535% | -2.02 | – | -4.93% | -9.49 | 4.86
27 | Clc1cccc(-n2nnnc2NCc2ccccc2Oc2ccccn2)c1Cl | -1.88% | -1.01% | 0.87 | 4.75% | -2.45% | 12.9 | – | 6.2% | 4.1 | 4.7
